Data set [1] has as its system white mice. The data set can be described thus: Porsolt's swimming behaviour test (duration of immobilization). The settings on record: for Duration of immobilization, %: distilled water = 100. It is filed as in vivo. The procedure:
The effect of the compound according to the present invention on the duration of immobilization in Porsolt's swimming behaviour test (Porsolt et al., 1977) in experiments on white mice of both sexes with a mass of 16-18 g. […] Sixty minutes after the last (or a single) administration of the preparations, the mice were placed into cylinders (10 cm diameter, 25 cm height) filled with water to 6 cm. The temperature of water was 21-22 °C. […] The number and duration of all stops in swimming (immobilization) over the observation period were recorded.

For data set [2], the system named is white rats. The data set can be described thus: Stereotypy induced by d,l-amphetamine. Type of data set: in vivo. The settings on record: distilled water = 100. The protocol: To evaluate the influence on stereotypy, the experiments were carried out on white rats of both sexes with a mass of 100-150 g. […] Stereotypy was assessed in points of from to 3 (after Janssen et al., 1967).

Data set [3] deals with male white mice. The data set can be described thus: Hyperlocomotion induced by d,l-amphetamine. Type of data set: in vivo. Conditions: 10-20 minutes after d,l-amphetamine 2.5 mg/kg intraperitoneally, distilled water 1,924.5±177.6. The procedure: The influence on hyperlocomotion induced by d,l-amphetamine was studied in experiments on male white mice with a mass of 20-22 g.
The locomotive activity of the mice was recorded 10-20 minutes after administration of d,l-amphetamine for 10 minutes.

Data set [4] deals with cats. The data set can be described thus: Bioelectrical activity of the brain (electroencephalogram), cats. Conditions: for effect on the electroencephalogram: dose and species not given. It is filed as in vivo. The source says:
The study of the effect on the bioelectrical activity of the brain was effected in acute experiments using 8 consious cats immobilized with diplacin with a mass of 2.5-3.4 kg under conditions of a controlled breathing and 25 rabbits with a mass of 2.6-3.1 kg with chronically implanted electrodes. Recorded on an electroencephalograph was an electroencephalogram of the sensomotor, parietal and visual regions of the cerebral cortex in cats, plus that of the reticular formation of the midbrain, dorsal hippocamp and amygdala in rabbits.

Data set [5] relates to male rats. The data set can be described thus: Conditional reflex of passive avoidance after amnesia (antiamnestic effect). It is filed as in vivo. The settings on record: for Number of rats, %, remained on the platform for 1 minute, 2.5 hours after administration of scopolamine (1 mg/kg hypodermally): amnesia control 10±3.3, distilled water 85±2.0; for Number of rats, %, remained on the platform for 1 minute, 1 day after electric shock: electroshock alone 14.2±3.0, distilled water 85±2.0. The protocol: Also studied was the effect of the compound according to the present invention on reproduction of the memory traces upon amnesia.
The experiments were carried out using male rats of a mass of 180-220 g.
The antiamnestic effect of the compound according to the present invention was assessed by the method of a conditional reflex of a passive avoidance with a subsequent use, as amnesic factors, of an electric shock (50 mA, 0.3 ms) through ear electrodes or scopolamine (1 mg/kg hypodermally).
The learning of the conditional reflex of a passive avoidance was effected by the "Step-down" method (Izquerdo, 1981) in an experimental unit consisting of a 30x30x40 cm chamber with an electrified floor having in its centre a plastic platform of 10x15x0.5 cm size. A rat was placed onto the platform and a latent period of its escape therefrom was recorded (in seconds). When escaping the platform onto the floor, the rat was subjected to an electric irritation on paws (0.5 mA, 10 seconds) that made it to climb the platform. The learning course took 6 sessions, each of 3 minutes duration. The conditional response was regarded as acquired if an animal remained on the platform for 1 minute.
The amnesic effect was produced immediately after learning course and 30 minutes thereafter the compound according to the present invention was administered in the doses of 1 and 3 mg/kg or (for comparison) pyracetam was administered in the doses of 100, 300, 600 and 1,000 mg/kg. The reproduction of the memory trace was assessed 24 hours after the electric shock and 2.5 hours after administration of scopolamine.

Data set [6] concerns white mice. The data set can be described thus: Enhancement of the effect of 5-hydroxytryptophane (head shaking). It is filed as in vivo. Conditions: Mus musculus, po, 25 min; orally, 60 minutes prior to 5-hydroxytryptophane 50 mg/kg intraperitoneally; read 25 minutes after; read-out: ED₅₀, the dose at which head shaking were noticed in 50% of the animals. The protocol: The compound according to the present invention was tasted for the exciting effect of 5-hydroxytryptophane (head shaking).
The compound according to the present invention in the doses of 1.0, 2.5, 5.0 and 10 mg/kg was administered orally 60 minutes prior to an intraperitoneal administration of 5-hydroxytryptophane (50 mg/kg).

The nature of data set [7]: Pharmacokinetics: penetration into and stay in the brain tissues. Conditions: in vivo.
Where [8] appears, read: 5-days' administration, 10.0 mg/kg orally (dose from row order).
Setting [9] is: 5-days' administration, 25.0 mg/kg orally (dose from row order).
Setting [10] is: 18-days' administration, 10.0 mg/kg orally (dose from row order).
The mark [11] stands for this setting: 18-days' administration, 25.0 mg/kg orally (dose from row order).
Setting [12] is: single administration, 10.0 mg/kg orally.
[13] abbreviates: single administration, 25.0 mg/kg orally.

Where a name gives a salt, the structure may show the parent alone.

In the case of `CN(C)CCCN1c2ccccc2CCc2ccccc21` [Imipramine, N-(3-dimethylaminopropyl)-aminodibenzyl hydrochloride], the “Duration of immobilization, Seconds, M±m” value in data set [1] (setting [8]) was determined as 92 ± 5.9 s; in data set [1] (setting [9]) it was 61 ± 6.3 s; in data set [1] (setting [10]) it was 96 ± 9.8 s; in data set [1] (setting [11]), 66 ± 9.8 s; in data set [1] (setting [12]) it was 131 ± 5.6 s. In addition, the “Duration of immobilization, %” value in data set [1] (setting [8]) was 59%; in data set [1] (setting [9]), 39%; in data set [1] (setting [10]) it was 52%; in data set [1] (setting [11]), 36%; in data set [1] (setting [12]), 88%; in data set [1] (setting [13]), 70%. Also, the figures for the “Stereotypy (tolal, for 4 measurements for 4 hours after hypodermal administration of d,l-amphetamine), %” value in data set [2] (oral dose 5.0 mg/kg) and in data set [2] (oral dose 10.0 mg/kg) were 200% and 306%, respectively. The “Average value of locomotor activity of a group of 5 mice for 10 minutes” value in data set [3] (5.0 mg/kg oral) is reported as 1,440.3±365.2; in data set [3] (10.0 mg/kg oral) it was 2,024.5±221.7. In addition, the “effect on the electroencephalogram” value in data set [4] is listed as “synchronizing effect”.
For the compound `NC(=O)CN1CCCC1=O` [Pyracetam], the entries for the “Number of rats, %, remained on the platform for 1 minute, 2.5 hours after administration of scopolamine (1 mg/kg hypodermally)” value in data set [5] (100 mg/kg oral), in data set [5] (300 mg/kg oral) and in data set [5] (600 mg/kg oral) were 12±5.5%, 13±1.6% and 20±5.5%, respectively. In addition, the “Number of rats, %, remained on the platform for 1 minute, 1 day after electric shock” value in data set [5] (100 mg/kg oral) turned out to be 12±3.3%; in data set [5] (300 mg/kg oral), 13±4.2%; in data set [5] (600 mg/kg oral), 12±3.3%; in data set [5] (1000 mg/kg oral), 46±6.4%.
As for `Cc1ccc2c(c1)c1c3n2CCNC3CCC1` (stereo not shown) [Pyrazidol, 2,3,3a,4,5,6-hexahydro-8-methyl-1H-pyrazino(3,2,1-j,k)-carbazole hydrochloride], the “Duration of immobilization, Seconds, M±m” value came out at 142 ± 5.7 s in data set [1] (setting [8]); 116 ± 8.1 s in data set [1] (setting [9]); 129 ± 8.0 s in data set [1] (setting [10]); 112 ± 8.6 s in data set [1] (setting [11]); 164 ± 5.9 s in data set [1] (setting [12]); 144 ± 9.9 s in data set [1] (setting [13]). Further, the “Duration of immobilization, %” value in data set [1] (setting [8]) turned out to be 87%; in data set [1] (setting [9]) it was 71%; in data set [1] (setting [10]), 70%; in data set [1] (setting [11]), 61%; in data set [1] (setting [12]) it was 93%; in data set [1] (setting [13]) it was 82%. The “Stereotypy (tolal, for 4 measurements for 4 hours after hypodermal administration of d,l-amphetamine), %” value amounted to 165% in data set [2] (oral dose 5.0 mg/kg) and 210% in data set [2] (oral dose 10.0 mg/kg). For the same compound, the “Average value of locomotor activity of a group of 5 mice for 10 minutes” value is on record as 1,440.0±380.2 in data set [3] (5.0 mg/kg oral) and 1,926.0±119.9 in data set [3] (10.0 mg/kg oral). In addition, in data set [6], the ED50 worked out at 20 mg/kg. The “effect on the electroencephalogram of the cortex and subcortical structures of the brain” value in data set [4] (1 to 5 mg/kg intravenously, species not specified) is given as “predominantly activating effect”. Also, the “time the drug remains in the brain tissues” value in data set [7] is listed as “at most 1.5 hours”.
Consider `CN(C)CCC=C1c2ccccc2CCc2ccccc21` [amitryptyline, reference compound], for which the “effect on the electroencephalogram” value in data set [4] is recorded as “synchronizing effect”.

For the origin of these results see patent publication EP0457908A1, “HYDROCHLORIDE 2,3,3a,4,5,6-HEXAHYDRO-8-CYCLOHEXYL-1H-PYRAZINO (3,2,1-j,k)CARBAZOL, METHOD OF OBTAINING IT AND A PHARMACEUTICAL PREPARATION OF ANTIDEPRESSIVE ACTION BASED ON IT” (priority 1989, dated 1991).
